Like-named read-outs stand apart in the source and are kept apart here.
Assays:
[1] = molecular target: T1, human A2B receptors (Homo sapiens, UniProt P29275); experiment: Binding at human A2B receptors expressed in HEK-293 cells vs [3H]ZM241385; conditions: for rA1/hA2B: ratio of Ki rat A1 to Ki human A2B
T1 construct: expressed in transfected cells; host or cells: HEK-293
T1 sequence (P29275 1-332): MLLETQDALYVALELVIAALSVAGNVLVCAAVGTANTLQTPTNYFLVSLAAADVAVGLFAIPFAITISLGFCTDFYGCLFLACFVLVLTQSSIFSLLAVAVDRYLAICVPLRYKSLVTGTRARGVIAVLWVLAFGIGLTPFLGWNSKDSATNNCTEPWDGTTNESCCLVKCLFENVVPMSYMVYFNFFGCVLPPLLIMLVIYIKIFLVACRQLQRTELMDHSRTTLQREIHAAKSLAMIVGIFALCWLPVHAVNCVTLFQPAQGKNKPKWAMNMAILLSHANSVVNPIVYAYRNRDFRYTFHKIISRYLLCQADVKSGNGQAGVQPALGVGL
Protocol: The plasmid was amplified in competent JM109 cells and plasmid DNA isolated using Wizard Megaprep columns (Promega Corp., Madison, WI).
Colonies were selected by growth of cells in 0.6 mg/mL G418. Transfected cells were maintained in DMEM supplemented with Hams F12 nutrient mixture (1/1), 10% newborn calf serum, 2 mM glutamine, and containing 50 IU/mL penicillin, 50 μg/mL streptomycin, and 0.2 mg/mL Geneticin (G418, Boehringer Mannheim, Indianapolis, IN).
Confluent monolayers of HEK-A2B cells were washed with PBS followed by ice-cold Buffer A (10 mM HEPES, 10 mM EDTA, pH 7.4) with protease inhibitors ([…] benzamidine, […], and […] of each aprotinin, pepstatin, and leupeptin). The cells were homogenized in a Polytron (Brinkmann) for 20 sec, centrifuged at 30,000g, and the pellets washed twice with buffer HE (10 mM HEPES, 1 mM EDTA, pH 7.4 with protease inhibitors). The final pellet was resuspended in buffer HE, supplemented with 10% sucrose and frozen in aliquots at −80°C. For binding assays, membranes were thawed and diluted 5–10-fold with HE to a final protein concentration of approximately 1 mg/mL. […] After incubating for 20 min at room temperature, 50 mL of 10 mg/mL Na-metabisulfite in water was added the quench the reaction. The reaction products were applied to a C18 HPLC column using 4 mM phosphate, pH 6.0/methanol. […] The incubation time was 3 h at 21°C. […] Membranes were filtered on Whatman GF/C filters using a Brandell cell harvester (Gaithersburg, MD) and washed three times over 15–20 sec with ice-cold buffer (10 mM Tris, 1 mM MgCl2, pH 7.4). […] Data from replicate experiments are tabulated as means ± SEM.
At A2B receptors, two radioligand binding assays (Table 1) were used. […] In order to evaluate selectivity, selected derivatives were subjected to standard binding assays at A1, A2A, and A3 receptors.

[2] = molecular target: T2, human A2A receptors (Homo sapiens, UniProt P29274); experiment: Binding at recombinant human A2A receptors expressed in HEK-293 cells vs [125I]ZM241385; conditions: recombinant human A2A in HEK-293 cells, read-out: Ki A2A (h) (converted)
T2 construct: expressed in transfected cells; host or cells: HEK-293
Protocol: (§1) All nonradioactive compounds were initially dissolved in DMSO and diluted with buffer to the final concentration, where the amount of DMSO never exceeded 2%. Incubations were terminated by rapid filtration over Whatman GF/B filters using a Brandell cell harvester. The tubes were rinsed three times with 3 mL buffer each.
(§2) At least six different concentrations of competitor, spanning 3 orders of magnitude adjusted appropriately for the IC50 value of each compound, were used. IC50 values, calculated with the nonlinear regression method implemented in Graph-Pad Prism (San Diego, CA) were converted to apparent Ki values as described by [Linden [1982]]. Hill coefficients of the tested compounds were in the range of 0.8–1.1.
(§3) At A2B receptors, two radioligand binding assays (Table 1) were used. Ki values of xanthine derivatives were determined in displacement of binding of the non-selective radioligands […], 8 (4-(2-[7-amino-2-{furyl}{1,2,4}triazolo{2,3-a}{1,3,5}tr nzyl)-8-phenyloxyacetate-1-propyl-xanthine), at human A2B receptors expressed in HEK-293 cell membranes [[Linden and Jacobson, 1998]]. In order to evaluate selectivity, selected derivatives were subjected to standard binding assays at A1, A2A, and A3 receptors. The initial screening utilized rat brain A1/A2A receptors (with radioligands [^3H]R-PIA and [^3H]CGS-21680), and selected compounds were examined at the recombinant human subtypes (Table 1), using [^3H]CPX ([^3H]8-cyclopentyl-1,3-dipropylxanthine) and ^125I-ZM 241385, ^125I-4-(2-[7-amino-2-[2-furyl][1,2,4]triazolo[2,3-a][1,3,5]triazin-5-yl-amino]ethyl)phenol) [[Palmer et al., 1996]].

[3] = molecular target: T3, rat A1 receptors (Rattus norvegicus, UniProt P25099); experiment: Displacement of [3H]R-PIA binding to A1 receptors in rat brain membranes; conditions: read-out: Ki rA1
T3 construct: to A1 receptors from rat cerebral cortical membranes; from tissue; host or cells: rat cerebral cortical membranes
T3 sequence (P25099 1-326): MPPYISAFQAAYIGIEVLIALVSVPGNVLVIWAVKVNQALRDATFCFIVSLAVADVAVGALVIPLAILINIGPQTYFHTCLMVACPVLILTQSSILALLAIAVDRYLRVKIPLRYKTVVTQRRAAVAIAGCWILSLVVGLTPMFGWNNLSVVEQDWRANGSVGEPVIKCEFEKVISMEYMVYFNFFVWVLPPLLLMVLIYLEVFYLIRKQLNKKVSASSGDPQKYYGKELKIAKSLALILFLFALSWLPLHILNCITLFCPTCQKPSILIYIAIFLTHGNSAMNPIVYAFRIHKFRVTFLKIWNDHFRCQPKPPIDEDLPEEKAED
Protocol: as §1, §2, §3

[4] = HEK-293 cells, vs [3H]ZM241385, read-out: Ki hA2B

T2 sequence (P29274 whole entry): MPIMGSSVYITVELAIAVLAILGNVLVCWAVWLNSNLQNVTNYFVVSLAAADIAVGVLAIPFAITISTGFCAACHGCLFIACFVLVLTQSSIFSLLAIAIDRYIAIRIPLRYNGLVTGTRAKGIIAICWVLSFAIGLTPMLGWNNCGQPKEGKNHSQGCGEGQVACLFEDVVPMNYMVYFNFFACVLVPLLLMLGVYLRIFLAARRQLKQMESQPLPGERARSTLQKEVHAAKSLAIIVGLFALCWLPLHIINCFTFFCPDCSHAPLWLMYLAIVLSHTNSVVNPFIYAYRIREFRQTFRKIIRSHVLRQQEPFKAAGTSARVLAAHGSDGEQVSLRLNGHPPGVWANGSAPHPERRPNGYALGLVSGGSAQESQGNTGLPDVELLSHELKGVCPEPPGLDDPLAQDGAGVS

CCCn1c(=O)c2[nH]c(-c3ccc(OCC(=O)OCC)cc3)nc2n(CCC)c1=O [Compound 4b]
Ki [1, 4]: 18.7 ± 0.5 nM
rA1/hA2B [1]: 2.8
Ki [2]: 342 nM

CCCn1c(=O)[nH]c(=O)c2[nH]c(-c3ccc(OCC(=O)NN4C(=O)C(C)=C(C)C4=O)cc3)nc21 [Compound 15, 8-[4-[(Carboxymethyl)oxy]phenyl]-1H-3-(n-propyl)xanthine N,N-[(1,2-Dimethyl)maleyl]hydrazide]
Ki [3]: 3590 nM
Ki [1, 4]: 1800 nM
rA1/hA2B [1]: 2.0
Ki [2]: 5480 nM

CCCn1c(=O)c2[nH]c(-c3ccc(OCC(=O)NN4C(=O)C(C)=C(C)C4=O)cc3)nc2n(CCC)c1=O [Compound 14, 8-[4-[(Carboxymethyl)oxy]phenyl]-1,3-di-(n-propyl)xanthine N,N-[(1,2-Dimethyl)maleyl]hydrazide]
Ki [3]: 11.1 ± 2.4 nM
Ki [1, 4]: 19.4 ± 6.2 nM
selectivity for human A2B vs. human A1 receptors ([1]; human A2B vs human A1): 160 fold
selectivity for human A2B vs. human A2A receptors ([1]; human A2B vs human A2A): 100 fold
selectivity for human A2B vs. human A3 receptors ([1]; human A2B vs human A3): 35 fold
rA1/hA2B [1]: 0.57
Ki ([1]; rounded values given in text, read-out: Ki at human A2B receptors): 19 nM
Ki [2]: 1970 nM

CCCn1c(=O)c2[nH]c(-c3ccc(OCC(=O)NN4C(=O)c5ccccc5C4=O)cc3)nc2n(CCC)c1=O [Compound 21, 8-[4-[(Carboxymethyl)oxy]phenyl]-1,3-di-(n-propyl)xanthine N,N-Phthaloylhydrazide]
Ki [3]: 26.3 ± 2.3 nM
Ki [1, 4]: 64.4 ± 0.8 nM
rA1/hA2B [1]: 0.41
Ki [2]: 359 nM

CCCn1c(=O)c2[nH]c(-c3ccc(OCC(=O)NNC(C)=O)cc3)nc2n(CCC)c1=O [Compound 4e, 8-[4-[(Carboxymethyl)oxy]phenyl]-1,3-di-(n-propyl)xanthine N-Acetylhydrazide]
Ki [3]: 6.51 ± 1.24 nM
Ki [1, 4]: 65.4 ± 6.5 nM
rA1/hA2B [1]: 0.10
Ki [2]: 186 nM

CCCn1c(=O)c2[nH]c(-c3ccc(OCC(=O)NNC(=O)CCC(=O)O)cc3)nc2n(CCC)c1=O [Compound 9, 8-[4-[(Carboxymethyl)oxy]phenyl]-1,3-di-(n-propyl)xanthine N-[(3-Carboxy)-n-propionyl]hydrazide]
Ki [3]: 73.3 ± 22 nM
Ki [1, 4]: 116 ± 10 nM
Ki [2]: 795 nM

— paper PMC9196953 (Drug development research, 1999)
